In patent US10519211B2, “Compounds as peptidic GLP1/glucagon/GIP receptor agonists” (SANOFI, priority 2016, dated 2019):
Numbered stars: 1 amine (or outer) side, 2 acyl side, 3 side chain; on linkers, the order of the positions; unused ones are H or OH. Square brackets hold non-standard residues; d marks the D form. Side chains are listed from the residue outwards. Peptide text beside a SMILES is read from it. * marks the point of attachment. γGlu = O=C(O)[C@H](CCC(=O)[*:2])N[*:1]; Palmitoyl = CCCCCCCCCCCCCCCC(=O)*; Aib = CC(C)(N)C(=O)O

Tests used:
[1] = target: T1, human GLP-1 receptor (hGLP-1 R) (Homo sapiens, UniProt P43220); experiment: cAMP response (HTRF) of HEK-293 cells stably expressing human GLP-1 receptor; type: cell-based; settings: Table 8; cAMP formation
T1 construct: expressed in transfected cells; host or cells: HEK-293
Description: cAMP content of cells was determined using a kit from Cisbio Corp. (cat. no. 62AM4PEJ) based on HTRF (Homogenous Time Resolved Fluorescence). For preparation, cells were split into T175 culture flasks and grown overnight to near confluency in medium (DMEM/10% FBS). Medium was then removed and cells washed with PBS lacking calcium and magnesium, followed by proteinase treatment with accutase (Sigma-Aldrich cat. no. A6964). Detached cells were washed and resuspended in assay buffer (1×HBSS; 20 mM HEPES, 0.1% BSA, 2 mM IBMX) and cellular density determined. They were then diluted to 400000 cells/ml and 25 μl-aliquots dispensed into the wells of 96-well plates. For measurement, 25 μl of test compound in assay buffer was added to the wells, followed by incubation for 30 minutes at room temperature.
Potencies of peptidic compounds at the GLP-1, glucagon and GIP receptors were determined by exposing cells expressing human glucagon receptor (hGlucagon R), human GIP receptor (hGIP-R) or human GLP-1 receptor (hGLP-1 R) to the listed compounds at increasing concentrations and measuring the formed cAMP as described in Methods.

[2] = tested on: female diet-induced obese (DIO) C57BL/6NHsd mice; experiment: Acute and chronic effects after subcutaneous treatment in female diet-induced obese (DIO) mice; type: in vivo, mouse; settings: for Plasma insulin concentrations compared to DIO vehicle / Plasma total cholesterol concentrations compared to DIO vehicle: day 28; for 24 hour blood glucose profile following first treatment: 30 μg/kg s.c., day 1, fed DIO mice, vs DIO control; for Body mass change / Whole body fat mass change / Terminal liver mass (g) / Terminal plasma alanine aminotransferase (U/L) / Terminal plasma insulin (U/L) / Terminal plasma total cholesterol (mmol/L): Table 11, twice-daily 30 μg/kg s.c.; for Body mass change: mean ± SEM; for Whole body fat mass change: QNMR predose vs day 26, mean ± SEM; for Terminal liver mass (g) / Terminal plasma alanine aminotransferase (U/L) / Terminal plasma insulin (U/L) / Terminal plasma total cholesterol (mmol/L): day 28, mean ± SEM
Description: Female C57BL/6NHsd mice were ordered group housed from Envigo RMS Inc., shipped group housed and remained group housed with shipped cage mates in shoebox caging with wood chip bedding until day 38 of the predose phase. At the study start mice were between 25-26 weeks old.
Mice were housed under vivarium conditions that included a 12 h light/dark cycle (light phase 04:00 AM-4:00 PM), room temperatures between 23-26° C. and a relative humidity between 30-70%. All animals had free access to water and a high fat diet (TD97366) for 16 weeks prior to pharmacological intervention (dosing phase). Feed was replaced with fresh feed weekly until and for the last time on day 38 of the predose phase. During the subsequent dosing phase, approximately 50% of the remaining feed were removed, replaced with fresh feed, and pellets were mixed evenly once per week.
On predose day 38, obese DIO mice were assigned to treatment groups (n=8) to match mean body masses between all DIO groups. An age-matched group with ad libitum access to a rodent maintenance diet (Teklad Global Diets Rodent 2014, pelleted) was included in the study as a lean control group. In the predosing phase from day 32 through 38, all study animals were treated with vehicle (Phosphate Buffered Saline, PBS, Gibco, without CaCl2 and MgCl2) once daily (s.c. approximately 0.2 mL/mouse).
On day 37 of the predose phase, the test article was diluted with PBS to a concentration of 100 μg/mL and aliquots of this stock solution were stored at approximately ≤−60° C. Stock aliquots were thawed for weekly use and thereafter stored in a refrigerator at approximately 4° C. The injected test article solution was prepared fresh once on each dosing day by diluting stock solution with PBS to achieve the desired concentration.
Mice were treated twice daily with a s.c. injection of PBS-vehicle or the test article for 28 days. The morning dosing was initiated and completed between 06:00 and 07:30 AM and the afternoon dosing between 2:00 and 3:30 PM. On day 28 of the dosing phase only the morning dose was administered. The applied volume was 5 ml/kg and the dose was adjusted to the most recent body mass recording of each individual.
Animals had unlimited access to water and feed during the experiment. On day 1 of the dosing phase approximately 5 μL of blood were collected via tail clips at hour 0, prior to the first s.c. dose of PBS-vehicle or test-article as well as 1, 2, 3, 4, 6, and 24 hours post-dose. Animals received the second s.c. dose of PBS-vehicle or test-article 8 hours after the first dose. The 24 hour blood collection of the blood glucose profile was performed prior to dosing on day 2. Glucose measurements were performed in whole blood and in duplicate or triplicate using Aviva glucometers.
Body mass was measured daily approximately between 06:00-07:30 AM from day 32 through 38 of the predosing phase and throughout the 28 days of the dosing phase. During the dosing phase mice were treated twice daily with either a s.c. injection of PBS-vehicle or test article.
To determine whole body fat mass Quantitative Nuclear Magnetic Resonance (QNMR) measurements were performed on predosing day 37 and on day 26 of the dosing phase. During the dosing phase mice were treated twice daily with either a s.c. injection of PBS-vehicle or test article.
On day 28 blood was collected prior to any other inlife activities for determination of plasma insulin concentrations. Then the morning dose was administered and necropsy was performed 4 hours post-dose. For this purpose animals were anesthetized with isoflurane and blood was collected by orbital bleeding.
On day 28 and 4 hours after the morning dose, blood was collected from mice under isoflurane anesthesia as described above. Then mice were killed and livers were collected and weighed.
Data are depicted as means±SEM. […] A One-Way ANOVA and Tukey Test were used for pairwise multiple comparisons of all groups (n=8/group, deviations from group size are indicated). […]

[3] = 30 μg/kg s.c. twice daily, 28 days, in words
[4] = 30 μg/kg s.c. twice daily, in words

T1 sequence (P43220 24-463): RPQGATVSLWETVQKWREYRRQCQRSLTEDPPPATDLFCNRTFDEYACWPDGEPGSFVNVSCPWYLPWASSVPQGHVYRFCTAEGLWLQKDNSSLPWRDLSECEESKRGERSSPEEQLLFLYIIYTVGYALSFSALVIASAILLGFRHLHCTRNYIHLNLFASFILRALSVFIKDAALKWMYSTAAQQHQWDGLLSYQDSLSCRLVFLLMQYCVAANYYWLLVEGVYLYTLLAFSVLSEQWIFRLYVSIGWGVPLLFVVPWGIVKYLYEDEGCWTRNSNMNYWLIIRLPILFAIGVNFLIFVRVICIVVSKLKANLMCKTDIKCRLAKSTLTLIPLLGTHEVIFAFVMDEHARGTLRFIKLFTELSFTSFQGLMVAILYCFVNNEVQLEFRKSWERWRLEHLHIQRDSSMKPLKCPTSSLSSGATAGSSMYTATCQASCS

EC50 [1] [pM]	Structure (SMILES)	Body mass compared to the DIO-Vehicle group [2, 3]	Plasma insulin concentrations compared to DIO vehicle [2, 4]	Plasma total cholesterol concentrations compared to DIO vehicle [2, 4]	Liver mass on day 28 compared to DIO animals treated with vehicle [2, 4]	Plasma alanine aminotransferase concentration on day 28 compared to DIO vehicle [2, 4]	24 hour blood glucose profile following first treatment ([2]; in words)	Body mass change ([2]; 28 days) [g]	Whole body fat mass change [2] [g]	Terminal liver mass (g) [2]	Terminal plasma alanine aminotransferase (U/L) [2]	Terminal plasma insulin (U/L) [2]	Terminal plasma total cholesterol (mmol/L) [2]	Whole body fat mass compared to the DIO-Vehicle group [2, 3]
2.4	CCCCCCCCCCCCCCCC(=O)N[C@@H](CCC(=O)N[C@@H](CCC(=O)NCCCC[C@H](NC(=O)[C@H](CC(C)C)NC(=O)[C@H](CCCCN)NC(=O)[C@H](CO)NC(=O)[C@H](CC(C)C)NC(=O)[C@H](CC(=O)O)NC(=O)[C@H](CO)NC(=O)[C@@H](NC(=O)[C@H](Cc1ccccc1)NC(=O)[C@@H](NC(=O)CNC(=O)[C@H](CCC(N)=O)NC(=O)C(C)(C)NC(=O)[C@@H](N)Cc1c[nH]cn1)[C@@H](C)O)[C@@H](C)O)C(=O)N[C@@H](CCC(=O)O)C(=O)N[C@@H](CCC(=O)O)C(=O)N[C@@H](CCC(N)=O)C(=O)N[C@@H](CCCNC(=N)N)C(=O)N[C@@H](CCC(N)=O)C(=O)NC(C)(C)C(=O)N[C@@H](CCC(=O)O)C(=O)N[C@@H](Cc1ccccc1)C(=O)N[C@H](C(=O)N[C@@H](CCC(=O)O)C(=O)N[C@@H](Cc1c[nH]c2ccccc12)C(=O)N[C@@H](CC(C)C)C(=O)N[C@@H](CCCCN)C(=O)N[C@@H](C)C(=O)N[C@H](C)C(=O)NCC(=O)N1CCC[C@H]1C(=O)N1CCC[C@H]1C(=O)N[C@@H](CO)C(=O)NC(C)(C)C(=O)N[C@@H](CCCCN)C(=O)N1CCC[C@H]1C(=O)N1CCC[C@H]1C(=O)N1CCC[C@H]1C(=O)N[C@@H](CCCCN)C(N)=O)[C@@H](C)CC)C(=O)O)C(=O)O [SEQ ID NO: 10, H-Aib-Q-G-T-F-T-S-D-L-S-K-L-K[gGlu-gGlu-Palm]-E-E-Q-R-Q-Aib-E-F-I-E-W-L-K-A-dAla-G-P-P-S-Aib-K-P-P-P-K-NH2] (H-H[Aib]QGTFTSDLSKLK([γGlu-γGlu-Palmitoyl])EEQRQ[Aib]EFIEWLKA[dA]GPPS[Aib]KPPPK-NH2)	statistically significant decrease in body mass	statistically significant reduction in plasma insulin concentrations	statistically significant reduction in plasma total cholesterol concentrations	statistically significantly lower liver mass	statistically significantly lower plasma alanine aminotransferase concentration	decrease in blood glucose concentrations below concentrations observed in DIO control mice	-7.14 ± 0.64	-6.48 ± 0.90	+1.07 ± 0.04 g	+56.75 ± 4.65 U/L	+35.81 ± 2.79 U/L	+4.28 ± 0.15 mmol/L	
	CCCCCCCCCCCCCCCC(=O)N[C@@H](CCC(=O)N[C@@H](CCC(=O)NCCCC[C@H](NC(=O)[C@H](CC(C)C)NC(=O)[C@H](CCCCN)NC(=O)[C@H](CO)NC(=O)[C@H](CC(C)C)NC(=O)[C@H](CC(=O)O)NC(=O)[C@H](CO)NC(=O)[C@@H](NC(=O)[C@H](Cc1ccccc1)NC(=O)[C@@H](NC(=O)CNC(=O)[C@H](CCC(N)=O)NC(=O)C(C)(C)NC(=O)[C@@H](N)Cc1c[nH]cn1)[C@@H](C)O)[C@@H](C)O)C(=O)N[C@@H](CCC(=O)O)C(=O)N[C@@H](CCC(=O)O)C(=O)N[C@@H](CCC(N)=O)C(=O)N[C@@H](CCCNC(=N)N)C(=O)N[C@@H](CCC(N)=O)C(=O)NC(C)(C)C(=O)N[C@@H](CCC(=O)O)C(=O)N[C@@H](Cc1ccccc1)C(=O)N[C@H](C(=O)N[C@@H](CCC(=O)O)C(=O)N[C@@H](Cc1c[nH]c2ccccc12)C(=O)N[C@@H](CC(C)C)C(=O)N[C@@H](CCCCN)C(=O)N[C@@H](C)C(=O)NCC(=O)NCC(=O)N[C@@H](Cc1c[nH]cn1)C(=O)N1CCC[C@H]1C(=O)N[C@@H](CO)C(=O)NC(C)(C)C(=O)N[C@@H](CCCCN)C(=O)N1CCC[C@H]1C(=O)N1CCC[C@H]1C(=O)N1CCC[C@H]1C(=O)N[C@@H](CCCCN)C(N)=O)[C@@H](C)CC)C(=O)O)C(=O)O [SEQ ID NO: 8, H-Aib-Q-G-T-F-T-S-D-L-S-K-L-K[gGlu-gGlu-Palm]-E-E-Q-R-Q-Aib-E-F-I-E-W-L-K-A-G-G-H-P-S-Aib-K-P-P-P-K-NH2]	statistically significant decrease in body mass	statistically significant reduction in plasma insulin concentrations	statistically significant reduction in plasma total cholesterol concentrations	statistically significantly lower liver mass	statistically significantly lower plasma alanine aminotransferase concentration	decrease in blood glucose concentrations below concentrations observed in DIO control mice	-8.23 ± 0.62	-6.65 ± 0.38	+1.08 ± 0.03 g	+68.88 ± 15.05 U/L	+39.70 ± 4.25 U/L	+4.36 ± 0.08 mmol/L	statistically significantly reduction in whole body fat mass
